Source: patent publication US20260070924A1, “INDAZOLE MACROCYCLES AND THEIR USE” (BLOSSOMHILL THERAPEUTICS, INC., priority 2022, published 2026)

Assays:
Assay type in all cases: cell-based
[1] = biological target: phospho-FLT3 (Y589/Y591) (Homo sapiens (Human), UniProt P36888, INS600HVDFREYEYD); test: Inhibition of kinase phosphorylation by Western Blot in MV-4-11; details: MV-4-11 cells, 4 hour-incubation; read-out: pFLT3 MV-4-11 IC50
Procedure: Inhibition of kinase phosphorylation assay was performed by Western Blot using MV-4-11 and MOLM13 cell lines. Cells were plated in 24 well plates at 1 million cells per well and then treated with compounds at different concentrations, starting at 100 nM, 1:4 titration with DMSO as control. After 4 hour-incubation, cells were washed once with ice-cold PBS, and lysed in RIPA lysis buffer with protease and phosphatase inhibitors. The cell lysates were then sonicated and spun down, and 40 μg of proteins were separated by sodium dodecyl sulfate electrophoresis on a 4 to 12% Bis-Tris polyacrylamide gel and transferred onto nitrocellulose membranes using Bio-Rad Trans-Blot Turbo Transfer System (Bio-Rad). Blocking was performed using 3% BSA or 5% Non-fat dry milk (Fisher Scientific) in TBST (Tris-buffered saline containing 0.05% of Tween 20) (Bio-Rad Laboratories, Inc.). […] Luminescence was detected by LI-COR Odyssey M imaging system and luminescence intensity were quantified using Empiria Studio 2.2 software. Data was analyzed using GraphPad Prism 9 (GraphPad Software, San Diego, CA) to obtain IC50 values.

[2] = test system: MOLM-13 cell line; test: Alternative splicing events by RNAseq in MOLM-13; details: 8 hour-incubation
Procedure: Alternative splicing events were measured by RNAseq in MOLM-13 cell line. Cells were plated in 24 well plates at 1 million cells per well and then treated with compounds at different concentrations, with DMSO as control. After 8 hour-incubation, cells were harvested and washed once with ice-cold PBS, and lysed in RNA lysis buffer (Invitrogen). Total RNA was extracted using the RNA Purification Kit (Invitrogen). RNAseq was performed by Biomiga (San Diego).

[3] = test system: H211; test: Cell proliferation panel (CellTiter-Glo 2.0, 5 days); details: Small cell lung carcinoma
Procedure: (§1) Cell proliferation assay was carried out in a panel of 108 cell lines. 1000 (attached cells) or 3000 (suspension cells) cells/100 μl per well were seeded in 96 well black plate with a clear bottom (Corning #3904). Compounds were added using Tecan D300e Digital Dispenser in 1:3 titration for 9 doses. Plates were incubated for 5 days at 37° C. and 5% CO2. Cell proliferation was measured using CellTiter-Glo 2.0 luciferase-based ATP detection assay (Promega, Madison, WI) at 50 μl per well following the manufacturer's protocol. Plates were then read on a TECAN Sparks multimode microplate reader. Data was analyzed using GraphPad Prism 9 (GraphPad Software, San Diego, CA) to obtain IC50 values. IC50 values were determined using Prism software (GraphPad Software, San Diego, CA).

[4] = test system: SKOV3; test: as above; details: Ovarian adenocarcinoma
Procedure: as §1

[5] = test system: H2122; test: as above; details: Lung adenocarcinoma NSCLC
Procedure: as §1

[6] = test system: H2291; test: as above; details: Lung adenocarcinoma NSCLC
Procedure: as §1

[7] = test system: H1975; test: as above; details: Lung adenocarcinoma NSCLC
Procedure: as §1

[8] = test system: A549; test: as above; details: Lung carcinoma, NSCLC
Procedure: as §1

[9] = test system: MFM-223; test: as above; details: Breast carcinoma
Procedure: as §1

[10] = test system: H1930; test: as above; details: Lung carcinoma small cell lung cancer
Procedure: as §1

[11] = test system: SK-N-SH; test: as above; details: Neuroblastoma
Procedure: as §1

[12] = test system: KASUMI-4; test: as above; details: Chronic Myeloblastic Leukemia
Procedure: as §1

[13] = test system: LNCaP; test: as above; details: Prostate carcinoma
Procedure: as §1

[14] = test system: Phospho-S6 Ribosomal Protein (S235/236); test: Inhibition of kinase phosphorylation by Western Blot in MOLM-13; details: MOLM-13 cells, 4 hour-incubation; read-out: pS6 MOLM-13 IC50
Procedure: (§2) Inhibition of kinase phosphorylation assay was performed by Western Blot using MV-4-11 and MOLM13 cell lines. Cells were plated in 24 well plates at 1 million cells per well and then treated with compounds at different concentrations, starting at 100 nM, 1:4 titration with DMSO as control. After 4 hour-incubation, cells were washed once with ice-cold PBS, and lysed in RIPA lysis buffer with protease and phosphatase inhibitors. The cell lysates were then sonicated and spun down, and 40 μg of proteins were separated by sodium dodecyl sulfate electrophoresis on a 4 to 12% Bis-Tris polyacrylamide gel and transferred onto nitrocellulose membranes using Bio-Rad Trans-Blot Turbo Transfer System (Bio-Rad). Blocking was performed using 3% BSA or 5% Non-fat dry milk (Fisher Scientific) in TBST (Tris-buffered saline containing 0.05% of Tween 20) (Bio-Rad Laboratories, Inc.). The membranes were incubated overnight with anti-phospho-FLT3 (Y589/Y591) (CST #60413), anti-phospho-STAT5 (Y694) (CST #4322), anti-Phospho-p44/42 MAPK (Erk1/2) (T202/Y204) (CST #9101), anti-Phospho-S6 Ribosomal Protein (S235/236) (CST #4858) and anti-β-Actin (CST #8457) each diluted 1000 times in 3% BSA in TBST. Membranes were washed with TBST and then incubated at room temperature for 1 hour with HRP-labeled anti-rabbit IgG polyclonal antibody (CST #7074) diluted 1000 times in 3% BSA. After TBST washing, blots were developed with a chemiluminescence system (SuperSignal West Femto Maximum Sensitivity Substrate, Pierce #34095). Luminescence was detected by LI-COR Odyssey M imaging system and luminescence intensity were quantified using Empiria Studio 2.2 software. Data was analyzed using GraphPad Prism 9 (GraphPad Software, San Diego, CA) to obtain IC50 values.

[15] = test system: Phospho-p44/42 MAPK (Erk1/2) (T202/Y204); test: as above; details: MOLM-13 cells, 4 hour-incubation; read-out: pERK MOLM-13 IC50
Procedure: as §2

[16] = test system: phospho-STAT5 (Y694); test: as above; details: MOLM-13 cells, 4 hour-incubation; read-out: pSTAT5 MOLM-13 IC50
Procedure: as §2

Chain of phospho-FLT3 (Y589/Y591) (P36888 whole entry, looked up, stated change not applied): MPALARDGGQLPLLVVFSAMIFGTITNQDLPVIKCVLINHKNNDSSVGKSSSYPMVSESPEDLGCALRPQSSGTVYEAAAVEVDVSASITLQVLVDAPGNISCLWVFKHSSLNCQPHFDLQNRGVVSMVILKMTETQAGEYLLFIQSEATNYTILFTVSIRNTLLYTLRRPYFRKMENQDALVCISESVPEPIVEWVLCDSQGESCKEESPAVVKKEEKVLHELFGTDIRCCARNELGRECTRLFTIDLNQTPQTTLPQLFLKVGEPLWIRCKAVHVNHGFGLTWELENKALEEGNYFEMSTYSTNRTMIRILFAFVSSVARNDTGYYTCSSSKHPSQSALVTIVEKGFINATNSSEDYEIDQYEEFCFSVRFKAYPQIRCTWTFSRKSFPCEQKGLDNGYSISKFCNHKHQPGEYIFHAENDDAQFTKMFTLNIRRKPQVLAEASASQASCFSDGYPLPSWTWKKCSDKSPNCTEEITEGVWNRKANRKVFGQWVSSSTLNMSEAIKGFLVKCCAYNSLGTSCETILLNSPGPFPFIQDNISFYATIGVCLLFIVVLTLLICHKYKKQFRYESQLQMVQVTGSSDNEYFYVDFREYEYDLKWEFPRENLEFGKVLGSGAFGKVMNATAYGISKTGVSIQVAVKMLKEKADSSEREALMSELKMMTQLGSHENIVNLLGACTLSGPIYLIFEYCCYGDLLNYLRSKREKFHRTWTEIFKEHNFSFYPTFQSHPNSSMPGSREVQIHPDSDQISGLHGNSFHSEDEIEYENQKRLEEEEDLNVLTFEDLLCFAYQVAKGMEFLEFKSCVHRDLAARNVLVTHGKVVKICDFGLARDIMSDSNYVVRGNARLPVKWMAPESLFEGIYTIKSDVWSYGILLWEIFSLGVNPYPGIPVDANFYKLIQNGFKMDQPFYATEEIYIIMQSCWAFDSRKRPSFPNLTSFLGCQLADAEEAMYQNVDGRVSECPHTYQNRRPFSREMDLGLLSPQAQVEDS

For `CCc1nn(C)c2c1/C=C/c1n[nH]c3ccc(cc13)-c1cnn(C)c1OCCN(C)C2=O` [Ex. 6, (17E)-16-ethyl-8,12,14-trimethyl-2,11,12,14-tetrahydro-8H-3,5-ethenotripyrazolo[3,4-f:3′,4′-j:4″,3″-n][1,4]oxazacyclopentadecin-13(10H)-one], the IC50 [1] was 0.16 nM, the “AS Events A3′SS (alternative 3′ splice site)” value (“AS Events A3′SS” for short) ([2]; MOLM-13, 30 nM) was 371 and the “AS Events A5′SS (alternative 5′ splice site)” value (from here on “AS Events A5′SS”) ([2]; MOLM-13, 30 nM) was 289. The “AS Events MXE (mutually exclusive exons)” value ([2]; MOLM-13, 30 nM) was 187, the “AS Events RI (retained intron)” value ([2]; MOLM-13, 30 nM) was 536 and the “AS Events SE (skipped exon)” value ([2]; MOLM-13, 30 nM) was 2054. For the same molecule, the “AS Events A3′SS” value ([2]; MOLM-13, 100 nM) was 559, the “AS Events A5′SS” value ([2]; MOLM-13, 100 nM) was 443 and the “AS Events MXE (mutually exclusive exons)” value ([2]; MOLM-13, 100 nM) was 325. The “AS Events RI (retained intron)” value ([2]; MOLM-13, 100 nM) was 841, the “AS Events SE (skipped exon)” value ([2]; MOLM-13, 100 nM) was 4568 and the “AS Events A3′SS” value ([2]; MOLM-13, 300 nM) was 722. For the same molecule, the “AS Events A5′SS” value ([2]; MOLM-13, 300 nM) was 590, the “AS Events MXE (mutually exclusive exons)” value ([2]; MOLM-13, 300 nM) was 355 and the “AS Events RI (retained intron)” value ([2]; MOLM-13, 300 nM) was 1184. The “AS Events SE (skipped exon)” value ([2]; MOLM-13, 300 nM) was 5093, the IC50 [3] was 105 nM and the IC50 [4] was 117 nM. For the same molecule, the IC50 [5] was 73.7 nM, the IC50 [6] was 362 nM and the IC50 [7] was 87.2 nM. The IC50 [8] was 67.7 nM, the IC50 [9] was 36.8 nM and the IC50 [10] was 181 nM. For the same molecule, the IC50 [11] was 21.7 nM, the IC50 [12] was 11.2 nM and the IC50 [13] was 136 nM. The IC50 [14] was 2.47 nM, the IC50 [15] was 4.11 nM and the IC50 [16] was 0.72 nM.
